Target: ABCB1 (P-glycoprotein/MDR1) (Homo sapiens, UniProt P08183)
Experiment: biochemical

Sequence of ABCB1 (P-glycoprotein/MDR1) (P08183 whole entry): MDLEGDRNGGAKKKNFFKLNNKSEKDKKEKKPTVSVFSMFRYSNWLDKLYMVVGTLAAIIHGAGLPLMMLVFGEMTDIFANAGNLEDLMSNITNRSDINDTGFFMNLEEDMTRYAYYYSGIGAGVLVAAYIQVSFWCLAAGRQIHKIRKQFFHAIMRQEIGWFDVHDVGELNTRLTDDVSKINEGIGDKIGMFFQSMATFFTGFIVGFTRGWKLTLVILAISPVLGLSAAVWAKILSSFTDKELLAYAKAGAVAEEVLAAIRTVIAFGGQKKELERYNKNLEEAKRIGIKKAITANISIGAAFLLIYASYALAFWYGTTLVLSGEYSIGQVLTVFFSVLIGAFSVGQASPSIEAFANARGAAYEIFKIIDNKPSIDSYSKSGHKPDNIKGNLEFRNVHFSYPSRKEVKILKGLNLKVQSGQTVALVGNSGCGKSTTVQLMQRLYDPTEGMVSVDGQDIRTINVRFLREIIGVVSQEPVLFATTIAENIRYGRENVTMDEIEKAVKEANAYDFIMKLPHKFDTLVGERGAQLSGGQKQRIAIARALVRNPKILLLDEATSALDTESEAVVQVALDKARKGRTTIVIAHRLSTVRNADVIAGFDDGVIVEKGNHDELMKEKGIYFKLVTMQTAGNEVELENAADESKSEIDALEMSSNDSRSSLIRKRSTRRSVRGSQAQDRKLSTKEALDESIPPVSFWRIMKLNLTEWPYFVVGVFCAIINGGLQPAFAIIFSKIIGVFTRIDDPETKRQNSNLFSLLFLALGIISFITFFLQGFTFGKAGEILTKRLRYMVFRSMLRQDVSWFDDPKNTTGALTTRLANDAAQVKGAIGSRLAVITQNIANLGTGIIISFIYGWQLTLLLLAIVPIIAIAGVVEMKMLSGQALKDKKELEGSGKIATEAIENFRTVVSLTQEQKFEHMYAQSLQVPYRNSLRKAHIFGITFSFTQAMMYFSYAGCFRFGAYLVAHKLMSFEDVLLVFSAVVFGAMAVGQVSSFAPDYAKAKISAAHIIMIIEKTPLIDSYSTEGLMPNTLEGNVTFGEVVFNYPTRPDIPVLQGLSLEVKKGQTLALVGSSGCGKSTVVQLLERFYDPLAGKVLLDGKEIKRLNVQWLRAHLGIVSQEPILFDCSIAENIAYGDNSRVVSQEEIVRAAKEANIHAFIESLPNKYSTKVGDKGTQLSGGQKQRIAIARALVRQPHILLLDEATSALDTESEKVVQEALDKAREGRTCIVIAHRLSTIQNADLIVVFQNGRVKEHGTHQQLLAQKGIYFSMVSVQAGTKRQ

N#Cc1cc2c(OCC(O)CN3CCN(C(c4ccccc4)c4ccccc4)CC3)cccc2[nH]1 (racemic) [DPI-201106]
IC50: ~500 nM

From publication PMC6109596 (Cancer letters, 2018)
